Reference: patent US20170081338A1, “SUBSTITUTED HETEROARYL COMPOUNDS AND METHODS OF USE” (Sunshine Lake Pharma Co., Ltd., priority 2015, published 2017)

Legend:
Aurora-A (h) = target: T1, Aurora-A (h) (Homo sapiens, UniProt O14965); test: Aurora-A (h) kinase assay; format: biochemical
T1 construct: purchased Millipore UK Ltd (contract assay service)
T1 sequence (O14965 1-403): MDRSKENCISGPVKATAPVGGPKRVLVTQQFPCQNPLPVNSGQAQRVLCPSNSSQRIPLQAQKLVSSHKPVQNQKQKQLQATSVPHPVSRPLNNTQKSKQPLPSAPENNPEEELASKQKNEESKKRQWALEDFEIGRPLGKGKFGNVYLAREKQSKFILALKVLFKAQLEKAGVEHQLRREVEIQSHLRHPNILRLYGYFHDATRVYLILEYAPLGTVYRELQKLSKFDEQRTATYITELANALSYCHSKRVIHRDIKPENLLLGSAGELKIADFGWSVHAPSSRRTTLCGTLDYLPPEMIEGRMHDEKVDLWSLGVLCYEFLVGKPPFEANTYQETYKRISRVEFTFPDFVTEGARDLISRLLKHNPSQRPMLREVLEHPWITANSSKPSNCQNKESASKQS
Procedure: The above assay procedure can be used to determine the IC50 for inhibition and/or the inhibition constant, Ki. The IC50 is defined as the concentration of compound required to reduce the enzyme activity by 50% under the condition of the assay. The IC50 value is estimated by preparing a 10 point curve using a 1/2 log dilution series (for example, a typical curve may be prepared using the following compound concentrations: 3 μM, 1 μM, 0.3 μM, 0.1 μM, 0.03 μM, 0.01 μM, 0.003 μM, 0.001 μM, 0.0003 μM and 0 μM).
Aurora-A (h) is incubated with 8 mM MOPS pH 7.0, 0.2 mM EDTA, 200 μM LRRASLG (Kemptide), 10 mM MgAcetate and [γ-^33P-ATP] (specific activity approx. 500 cpm/pmol, concentration as required). The reaction is initiated by the addition of the MgATP mix. After incubation for 40 minutes at room temperature, the reaction is stopped by the addition of 3% phosphoric acid solution. 10 μL of the reaction is then spotted onto a P30 filtermat and washed three times for 5 minutes in 75 mM phosphoric acid and once in methanol prior to drying and scintillation counting.
The kinase assays described herein were performed at Millipore UK Ltd, Dundee Technology Park, Dundee DD2 1SW, UK.

[1] = Compound stability in rat liver microsomes; format: in vitro ADME; conditions: pH 7.4; for half-life at 5 μM: rat liver microsomes 0.5 mg protein/mL, compound 5 μM, NADPH, 37° C., read-out: Rat T1/2; for CLint scaled at 5 μM: rat liver microsomes, in vivo CLint extrapolated
Procedure: (§1) Human or rat liver microsomes incubations were conducted in duplicate in polypropylene tubes. The typical incubation mixtures consisted of human or rat liver microsomes (0.5 mg protein/mL), compounds of interest (5 μM) and NADPH (1.0 mM) in a total volume of 200 μL potassium phosphate buffer (PBS, 100 mM, pH 7.4). Compounds were dissolved in DMSO and diluted with PBS such that the final concentration of DMSO was 0.05%. The enzymatic reactions were commenced with the addition of protein after a 3-min preincubation and incubated in a water bath open to the air at 37° C. Reactions were terminated at various time points (0, 5, 10, 15, 30, 60 min) by adding equal volume of ice-cold acetonitrile. The samples were stored at −80° C. until LC/MS/MS assays.
(§2) The concentrations of compounds in the incubation mixtures of human or rat liver microsomes were determined by a LC/MS/MS method. The ranges of the linearity in the concentration range were determined for each tested compounds.
(§3) A parallel incubation was performed using denatured microsomes as the negative control, and reactions were terminated at various time points (0, 15, 60 min) after incubation at 37° C.
(§4) Dextromethorphan (70 μM) was selected as the positive control, and reactions were terminated at various time points (0, 5, 10, 15, 30, 60 min) after incubation at 37° C. Both positive and negative control samples were included in each assay to ensure the integrity of the microsomal incubation system.
(§5) The concentrations of compounds in human or rat liver microsome incubations were plotted as a percentage of the relevant zero time point control for each reaction. The in vivo CLint were extrapolated (ref.: Naritomi, Y.; Terashita, S.; Kimura, S.; Suzuki, A.; Kagayama, A.; and Sugiyama, Y.; Prediction of human hepatic clearance from in vivo animal experiments and in vitro metabolic studies with liver microsomes from animals and humans. Drug Metab. Dispos., 2001, 29: 1316-1324).

[2] = Compound stability in human liver microsomes; format: in vitro ADME; conditions: pH 7.4; for half-life at 5 μM: human liver microsomes 0.5 mg protein/mL, compound 5 μM, NADPH, 37° C., read-out: Human T1/2; for CLint scaled at 5 μM: human liver microsomes, in vivo CLint extrapolated
Procedure: as §1, §2, §3, §4, §5

[3] = Pharmacokinetics after intravenous and oral administration in rats; format: in vivo; conditions: for Clearance (CL) after iv dosing / AUC(0-t) / half-life / Vd: dose 1 mg/kg, iv dosing; for F: oral bioavailability; for AUC(0-t) / half-life / Vd: rat, plasma; for Vd: read-out: Vss
Procedure: The LC/MS/MS system used in the analysis consists of an Agilent 1200 Series vacuum degasser, binary pump, well-plate autosampler, thermostatted column compartment, the Agilent G6430 Triple Quadrupole Mass Spectrometer with an electrosprayionization (ESI) source. Quantitative analysis was carried out using MRM mode. The parameters for MRM transitions are in the Table A.
An Agilent XDB-C18, 2.1×30 mm, 3.5 μM column was used for the analysis. 5 μL of the samples were injected. Analysis condition: The mobile phase was 0.1% formic acid in water (A) and 0.1% formic acid in methanol (B). The flow rate was 0.4 mL/min. And the gradient of Mobile phase was in the Table B.
Alternatively, an Agilent 6330 series LC/MS/MS spectrometer equipped with G1312A binary pumps, a G1367A autosampler and a G1314C UV detector were used in the analysis. An ESI source was used on the LC/MS/MS spectrometer. The analysis was done in positive ion mode as appropriate and the MRM transition for each analyte was optimized using standard solution. A Capcell MP-C18 100×4.6 mm I.D., […] column (Phenomenex, Torrance, Calif., USA) was used during the analysis. The mobile phase was 5 mM ammonia acetate, 0.1% MeOH in water (A): 5 mM ammonia acetate, 0.1% MeOH in acetonitrile (B) (70/30, v/v). The flow rate was 0.6 mL/min. Column was maintained at ambient temperature. 20 μL of the samples were injected.
The compounds disclosed herein are assessed in pharmacokinetic studies in mice, rats, dogs or monkeys. The compounds are administered as a water solution, 2% HPMC+1% TWEEN®80 in water solution, 5% DMSO+5% solutol in saline, 4% MC suspension or capsule. For the intravenous administration, the animals are generally given at 0.5, 1 or 2 mg/kg dose. For the oral (p.o.) dosing, mice and rats are generally given 0.5, 1, 5 or 10 mg/kg dose, and dogs and monkeys are generally given 10 mg/kg dose. The blood samples (0.3 mL) are drawn at 0.25, 0.5, 1.0, 2.0, 3.0, 4.0, 6.0, 8.0, 12 and 24 h time points or 0.083, 0.25, 0.5, 1.0, 2.0, 4.0, 6.0, 8.0 and 24 h time points and centrifuged at 3,000 or 4000 rpm for 2 to 10 min. The plasma solutions are collected, and stored at −20° C. or −70° C. until analyzed by LC/MS/MS as described above.

Row | Compound | IC50 (Aurora-A (h)) | half-life at 5 μM [1] | CLint scaled at 5 μM [1] | half-life at 5 μM [2] | CLint scaled at 5 μM [2] | Clearance (CL) after iv dosing [3] | F [3] | AUC(0-t) [3] | half-life [3] | Vd [3]
1 | Cn1cc(Nc2ncc(Cl)c(N[C@@H]3COC4C3OC[C@@H]4NS(=O)(=O)C3CCOC3)n2)cn1 (stereo partly drawn) [Ex. 20, N-((3S,6R)-6-((5-chloro-2-((1-methyl-1H-pyrazol-4-yl)amino)pyrimidin-4-yl)amino)hexahydrofuro[3,2-b]furan-3-yl)tetrahydrofuran-3-sulfonamide] | 0.041 µM | 116 min | 1.29 L/h/kg | 75.5 min | 1.38 L/h/kg | 3.62 L/h/kg | 42.5% | 0.284 µg·h/mL | 27.6 min | 1.41 L/kg
2 | CC(C)S(=O)(=O)N[C@H]1COC2C1OC[C@H]2Nc1nc(Nc2cnn(C)c2)ncc1Cl (stereo partly drawn) [Ex. 15, N-((3S,6R)-6-((5-chloro-2-((1-methyl-1H-pyrazol-4-yl)amino)pyrimidin-4-yl)amino)hexahydrofuro[3,2-b]furan-3-yl)propane-2-sulfonamide] | 0.034 µM | 91.6 min | 1.63 L/h/kg | 143 min | 0.727 L/h/kg | 1.39 L/h/kg | 86.5% | 0.726 µg·h/mL | 47.4 min | 1.11 L/kg
3 | Cn1cc(Nc2ncc(Cl)c(N[C@H]3COC4C3OC[C@H]4NS(=O)(=O)N3CCCC3)n2)cn1 (stereo partly drawn) [Ex. 6, N-((3R,6S)-6-((5-chloro-2-((1-methyl-1H-pyrazol-4-yl)amino)pyrimidin-4-yl)amino)hexahydrofuro[3,2-b]furan-3-yl)pyrrolidine-1-sulfonamide] | 0.984 µM | 37.7 min | 3.95 L/h/kg | 37.3 min | 2.79 L/h/kg | 3.23 L/h/kg | 44.3% | 0.309 µg·h/mL | 34.8 min | 1.54 L/kg
4 | Cn1cc(Nc2ncc(Cl)c(N[C@@H]3COC4C3OC[C@@H]4NS(=O)(=O)C3CCCC3)n2)cn1 (stereo partly drawn) [Ex. 14, N-((3S,6R)-6-((5-chloro-2-((1-methyl-1H-pyrazol-4-yl)amino)pyrimidin-4-yl)amino)hexahydrofuro[3,2-b]furan-3-yl)cyclopentanesulfonamide] | 0.051 µM | 47.7 min | 3.12 L/h/kg | 24.7 min | 4.22 L/h/kg | 2.00 L/h/kg | 91.9% | 0.497 µg·h/mL | 54 min | 1.08 L/kg
5 | Cn1cc(Nc2ncc(Cl)c(N[C@@H]3COC4C3OC[C@@H]4NS(=O)(=O)C3CC3)n2)cn1 (stereo partly drawn) [Ex. 4, N-((3S,6R)-6-((5-chloro-2-((1-methyl-1H-pyrazol-4-yl)amino)pyrimidin-4-yl)amino)hexahydrofuro[3,2-b]furan-3-yl)cyclopropanesulfonamide] | 0.053 µM | 103 min | 1.44 L/h/kg | 563 min | 0.185 L/h/kg | 1.42 L/h/kg | 51.7% | 0.712 µg·h/mL | 21 min | 0.69 L/kg
6 | Cn1cc(Nc2ncc(Cl)c(N[C@@H]3COC4C3OC[C@@H]4Nc3ccc(C#N)nn3)n2)cn1 (stereo partly drawn) [Ex. 3, 6-(((3S,6R)-6-((5-chloro-2-((1-methyl-1H-pyrazol-4-yl)amino)pyrimidin-4-yl)amino)hexahydrofuro[3,2-b]furan-3-yl)amino)pyridazine-3-carbonitrile] | 0.045 µM | 22 min | 6.79 L/h/kg | 142 min | 0.738 L/h/kg | – | – | – | – | –
7 | Cn1cc(Nc2ncc(Cl)c(N[C@H]3COC4C3OC[C@H]4NS(=O)(=O)CC(F)(F)F)n2)cn1 (stereo partly drawn) [Ex. 5, N-((3R,6S)-6-((5-chloro-2-((1-methyl-1H-pyrazol-4-yl)amino)pyrimidin-4-yl)amino)hexahydrofuro[3,2-b]furan-3-yl)-2,2,2-trifluoroethanesulfonamide] | 1 µM | 82.7 min | 1.8 L/h/kg | 243 min | 0.43 L/h/kg | 2.33 L/h/kg | 44.0% | 0.42 µg·h/mL | 108 min | 2.01 L/kg
8 | Cn1cc(Nc2ncc(Cl)c(N[C@@H]3COC4C3OC[C@@H]4NS(=O)(=O)CC3CCOC3)n2)cn1 (stereo partly drawn) [Ex. 16, N-((3S,6R)-6-((5-chloro-2-((1-methyl-1H-pyrazol-4-yl)amino)pyrimidin-4-yl)amino)hexahydrofuro[3,2-b]furan-3-yl)-1-(tetrahydrofuran-3-yl)methanesulfonamide] | 0.017 µM | 106 min | 1.4 L/h/kg | 39.1 min | 2.67 L/h/kg | – | – | – | – | –
9 | CC(C)CS(=O)(=O)N[C@@H]1COC2C1OC[C@@H]2Nc1nc(Nc2cnn(C)c2)ncc1Cl (stereo partly drawn) [Ex. 13, N-((3R,6S)-6-((5-chloro-2-((1-methyl-1H-pyrazol-4-yl)amino)pyrimidin-4-yl)amino)hexahydrofuro[3,2-b]furan-3-yl)-2-methylpropane-1-sulfonamide] | 1.03 µM | 41.4 min | 3.6 L/h/kg | 32.9 min | 3.17 L/h/kg | 3.42 L/h/kg | 74.5% | 0.291 µg·h/mL | 58.2 min | 2.56 L/kg
